Laboratory results published in patent EP4748837A1, “AROMATIC AMIDE DERIVATIVE, AND PREPARATION METHOD THEREFOR AND USE THEREOF” (Zhejiang Hisun Pharmaceutical Co., Ltd., priority 2023, dated 2025).
Read-outs that look alike come from different tables or passages of the source.

How the values were obtained:
OVCAR-3 cells = test: Inhibition of OVCAR-3 cell proliferation (CellTiter-Glo cell viability); type: cell-based; conditions: Homo sapiens
Description: (§1) Influences of the compounds of the present invention on OVCAR-3 cell proliferation were determined by the following method. OVCAR-3 cells (containing TP53 R248Q mutation) were purchased from the Cell Bank of Shanghai Institute of Biochemistry and Cell Biology, Chinese Academy of Sciences, and cultured in an RPMI 1640 culture medium containing 10% fetal bovine serum, 100 U penicillin and 100 µg/mL streptomycin. A cell viability was determined by a CellTiter-Glo® Luminescent Cell Viability Assay kit (Promega, article number G7573).
(§2) An experimental method was operated according to steps in the instruction of the kit, which was briefly described as follows: a test compound was dissolved in DMSO first to prepare a 10 mM stock solution, then the stock solution was diluted with the culture medium to prepare a test sample, and a final concentration of the compound was in a range of 1000 nM-0.015 nM. Cells in a logarithmic growth phase were inoculated into a 96-well cell culture plate at a density of 1000 cells per well, cultured in a 5% CO2 incubator at 37°C overnight, and then the test compound was added to continuously culture for 72 hours. After the culture was ended, 50 uL of CellTiter-Glo detection solution was added to each well , shaken for 5 minutes, and then allowed to stand for 10 minutes, and subsequently, a luminance value of each well of the sample was read by a microplate reader in a Luminescence mode. By comparing with the numerical value of a control group (0.3% DMSO), a percentage inhibition rate of the compound at each concentration point was calculated, and then nonlinear regression analysis was carried out based on concentration logarithm-inhibition rate of the compound in GraphPad Prism 5 software, so as to obtain an IC50 value of the compound for inhibiting the cell proliferation, which was as shown in Table 1. Table 1 IC50 data of the compounds of the present invention for inhibiting OVCAR-3 cell proliferation

HT-29 cells = test: Inhibition of HT-29 cell proliferation (CellTiter-Glo cell viability); type: cell-based; conditions: Homo sapiens
Description: as §1, with “HT-29” for “OVCAR-3”, “R273H” for “R248Q”, “a McCOY's 5A” for “an RPMI 1640”
as §2, with “for 120” for “for 72”, “each well,” for “each well ,”, “Table 2.” for “Table 1.”, “Table 2” for “Table 1”, “inhibiting HT-29” for “inhibiting OVCAR-3”

recombinant human KIF18A = target: T1, recombinant human KIF18A (Homo sapiens, UniProt Q8NI77); test: Inhibition of KIF18A enzyme activity (ADP-Glo assay); type: biochemical; conditions: recombinant human KIF18A 100 nM, ATP 60 µM, tubulin, paclitaxel
T1 construct: purchased GenScript
T1 sequence (Q8NI77 whole entry): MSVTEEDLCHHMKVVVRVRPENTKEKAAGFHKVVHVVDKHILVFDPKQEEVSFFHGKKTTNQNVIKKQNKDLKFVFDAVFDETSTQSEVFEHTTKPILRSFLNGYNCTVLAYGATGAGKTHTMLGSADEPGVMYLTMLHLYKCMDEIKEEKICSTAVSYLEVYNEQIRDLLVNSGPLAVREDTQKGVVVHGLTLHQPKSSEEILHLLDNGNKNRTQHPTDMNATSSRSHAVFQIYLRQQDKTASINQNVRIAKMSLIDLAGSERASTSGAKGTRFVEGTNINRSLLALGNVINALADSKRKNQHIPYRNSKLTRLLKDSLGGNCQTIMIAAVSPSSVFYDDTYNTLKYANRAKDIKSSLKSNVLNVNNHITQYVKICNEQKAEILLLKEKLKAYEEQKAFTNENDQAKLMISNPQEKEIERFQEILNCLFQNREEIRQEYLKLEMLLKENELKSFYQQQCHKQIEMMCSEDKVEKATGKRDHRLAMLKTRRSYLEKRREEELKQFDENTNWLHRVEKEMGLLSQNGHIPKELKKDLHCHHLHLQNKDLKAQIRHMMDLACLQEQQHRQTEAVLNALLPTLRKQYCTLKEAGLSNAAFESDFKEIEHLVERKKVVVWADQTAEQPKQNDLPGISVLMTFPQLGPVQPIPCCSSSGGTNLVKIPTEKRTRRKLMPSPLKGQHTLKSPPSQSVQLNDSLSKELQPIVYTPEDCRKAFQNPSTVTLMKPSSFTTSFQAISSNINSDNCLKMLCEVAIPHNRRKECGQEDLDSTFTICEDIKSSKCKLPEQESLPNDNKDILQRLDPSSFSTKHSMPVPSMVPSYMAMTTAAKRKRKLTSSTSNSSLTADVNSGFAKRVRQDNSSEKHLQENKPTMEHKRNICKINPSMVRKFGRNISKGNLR
T1 sequence (P68363 whole entry partner): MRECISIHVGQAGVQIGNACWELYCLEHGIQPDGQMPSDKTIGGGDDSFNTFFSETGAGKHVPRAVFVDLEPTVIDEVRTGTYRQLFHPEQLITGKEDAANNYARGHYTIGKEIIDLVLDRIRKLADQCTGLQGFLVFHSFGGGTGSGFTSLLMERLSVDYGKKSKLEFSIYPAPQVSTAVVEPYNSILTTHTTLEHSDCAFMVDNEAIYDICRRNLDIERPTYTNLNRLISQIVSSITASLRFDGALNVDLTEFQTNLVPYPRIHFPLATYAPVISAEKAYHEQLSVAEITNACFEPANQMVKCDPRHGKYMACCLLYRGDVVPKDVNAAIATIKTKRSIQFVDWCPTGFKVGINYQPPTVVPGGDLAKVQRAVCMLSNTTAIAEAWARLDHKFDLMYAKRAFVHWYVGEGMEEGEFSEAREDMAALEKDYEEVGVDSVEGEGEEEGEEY
T1 sequence (Q9BVA1 whole entry partner): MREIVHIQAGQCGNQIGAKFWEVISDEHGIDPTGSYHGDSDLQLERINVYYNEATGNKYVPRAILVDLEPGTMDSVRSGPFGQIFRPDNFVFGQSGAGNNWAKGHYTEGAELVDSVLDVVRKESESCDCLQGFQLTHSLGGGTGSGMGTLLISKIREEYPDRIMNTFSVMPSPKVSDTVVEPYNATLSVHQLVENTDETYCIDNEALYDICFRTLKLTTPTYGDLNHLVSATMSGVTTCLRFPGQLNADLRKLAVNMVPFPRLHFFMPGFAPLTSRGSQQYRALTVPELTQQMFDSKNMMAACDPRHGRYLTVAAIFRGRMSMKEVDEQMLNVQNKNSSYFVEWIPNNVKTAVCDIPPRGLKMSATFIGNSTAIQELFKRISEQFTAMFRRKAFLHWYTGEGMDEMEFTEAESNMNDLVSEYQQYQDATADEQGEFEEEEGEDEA
Description: Inhibition degrees of the compounds of the present invention on recombinant human KIF18A enzyme activity in vitro were determined by the following method. An ADP-Glo™ Kinase Assay kit (article number V9102) from Promega Company was used in this method. Detailed experimental operation referred to the instruction of the kit.
An experimental process was briefly described as follows: a test compound was dissolved in DMSO first to prepare a stock solution, then the stock solution was gradiently diluted with a reaction buffer A ([…], 0.01% Pluronic F-68), and a final concentration of the test compound in the reaction system was in a range of 10000 nM-0.15 nM; and a KIF18A protein and ATP working solution was prepared by using a reaction buffer B (15 mM Tris, pH 7.5, 10 mM MgCl2, 0.01% Pluronic F-68, 37.5 µg/ml tubulin, 1.25 µM paclitaxel). The reaction was carried out in a 384-well microplate. The test compound and the recombinant human KIF18A protein (final concentration of 100 nM, entrusted to GenScript for expression) were added into the wells and incubated at room temperature for 20 minutes, and subsequently, an ATP solution (component V915A from the ADP-Glo™ Kinase Assay kit, final concentration of 60 µM) was added to the reaction solution and the system was incubated at room temperature for 20 minutes. Subsequently, 5 µL of ADP-Glo Reagent was added to the reaction systemand the system was incubated at room temperature for 50 minutes. Then, 10 µL of Kinase Detection Reagent was added to the reaction system and the system was incubated at room temperature for 30 minutes. After the incubation was ended, a chemiluminiscence intensity value of each well was determined by a microplate reader in a Luminescence mode.

[1] = OVCAR-3 cells (TP53 R248Q mutation), 72 hours culture with compound, read-out: IC50
[2] = HT-29 cells (TP53 R273H mutation), 120 hours culture with compound, read-out: IC50

Row | Compound | IC50 (OVCAR-3 cells; [1]) [nM] | IC50 (HT-29 cells; [2]) [nM] | IC50 (recombinant human KIF18A; read-out: IC50) [nM] | IC50 (OVCAR-3 cells; OVCAR-3, 72 h) [nM] | IC50 (HT-29 cells; HT-29, 120 h) [nM] | IC50 (recombinant human KIF18A) [nM]
1 | O=C(Nc1ccc(-c2ccnnc2)c(N2CCC(F)(F)CC2)c1)c1ccc(NS(=O)(=O)C2CC2)cc1N1CCC2(CC1)CC2 [Example 16, 4-(cyclopropanesulfonamido)-N-(3-(4,4-difluoropiperidin-1-yl)-4-(pyridazin-4-yl)phenyl)-2-(6-azaspiro[2.5]octan-6-yl)b enzamide] | 6.2 | 4.6 | 147 | – | – | –
2 | O=C(Nc1ccc(-c2ncccn2)c(N2CCC(F)(F)CC2)c1)c1ccc(NS(=O)(=O)C2CC2)cc1N1CCC2(CC1)CC2 [Example 17, 4-(cyclopropanesulfonamido)-N-(3-(4,4-difluoropiperidin-1-yl)-4-(pyrimidin-2-yl)phenyl)-2-(6-azaspiro[2.5]octan-6-yl)b enzamide] | 3.2 | 3.3 | 121 | – | – | –
3 | CCS(=O)(=O)Nc1ccc(C(=O)Nc2ccc(-c3ncccn3)c(N3CC(F)(F)C3)c2)c(N2CCC3(CC2)CC3)c1 [Example 18, N-(3-(3,3-difluoroazetidin-1-y 1)-4-(pyrimidin-2-yl)phenyl)-4-(ethylsulfonamido)-2-(6-azaspiro[2.5]octan-6-yl)benzamide] | 6.5 | 0.64 | 149 | – | – | –
4 | CCS(=O)(=O)Nc1ccc(C(=O)Nc2ccc(-c3ccnnc3)c(N3CC(F)(F)C3)c2)c(N2CCC3(CC2)CC3)c1 [Example 19, N-(3-(3,3-difluoroazetidin-1-y 1)-4-(pyridazin-4-yl)phenyl)-4-(ethylsulfonamido)-2-(6-azaspiro[2.5]octan-6-yl)benzamide] | 6.3 | 0.44 | 98.6 | – | – | –
5 | CCS(=O)(=O)Nc1ccc(C(=O)Nc2ccc(-n3ccnc3)c(N3CCC(F)(F)CC3)c2)c(N2CCC3(CC2)CC3)c1 [Example 20, N-(3-(4,4-difluoropiperidin-1-yl)-4-(1H-imidazol-1-yl)pheny 1)-4-(ethylsulfonamido)-2-(6-azaspiro[2.5]octan-6-yl)benzamide] | 8.5 | 6 | 50.8 | – | – | –
6 | CCS(=O)(=O)Nc1ccc(C(=O)Nc2ccc(-c3ncc[nH]3)c(N3CCC(F)(F)CC3)c2)c(N2CCC3(CC2)CC3)c1 [Example 25, N-(3-(4,4-difluoropiperidin-1-yl)-4-(1H-imidazol-2-yl)pheny 1)-4-(ethylsulfonamido)-2-(6-azaspiro[2.5]octan-6-yl)benzamide] | – | – | – | 3.5 | 2.6 | 33.9
7 | CCS(=O)(=O)Nc1ccc(C(=O)Nc2ccc(-n3cncn3)c(N3CCC(F)(F)CC3)c2)c(N2CCC3(CC2)CC3)c1 [Example 28, N-(3-(4,4-difluoropiperidin-1-yl)-4-(1H-1,2,4-triazol-1-yl)phenyl)-4-(ethylsulfonamido)-2-(6-azaspiro[2.5]octan-6-yl)benz amide] | 12.4 | 8.4 | 59.1 | – | – | –
8 | CCS(=O)(=O)Nc1ccc(C(=O)Nc2ccc(-n3cnnn3)c(N3CCC(F)(F)CC3)c2)c(N2CCC3(CC2)CC3)c1 [Example 29, N-(3-(4,4-difluoropiperidin-1-yl)-4-(1H-tetrazol-1-yl)phenyl)-4-(ethylsulfonamido)-2-(6-azaspiro[2.5]octan-6-yl)benzamide] | 15.9 | 18.4 | 79.5 | – | – | –
9 | CCS(=O)(=O)Nc1ccc(C(=O)Nc2ccc(-n3ncnn3)c(N3CCC(F)(F)CC3)c2)c(N2CCC3(CC2)CC3)c1 [Example 30, N-(3-(4,4-difluoropiperidin-1-yl)-4-(2H-tetrazol-2-yl)phenyl)-4-(ethylsulfonamido)-2-(6-azaspiro[2.5]octan-6-yl)benzamide] | 13.3 | 7.9 | 79 | – | – | –
10 | CCS(=O)(=O)Nc1ccc(C(=O)Nc2ccc(-n3ccnn3)c(C3CCC(F)(F)CC3)c2)c(N2CCC3(CC2)CC3)c1 [Example 31, N-(3-(4,4-difluorocyclohexyl)-4-(1H-1,2,3-triazol-1-yl)pheny 1)-4-(ethylsulfonamido)-2-(6-azaspiro[2.5]octan-6-yl)benzamide] | 15.9 | 8.3 | 134 | – | – | –
11 | CCS(=O)(=O)Nc1ccc(C(=O)Nc2ccc(-c3nnc[nH]3)c(N3CCC(F)(F)CC3)c2)c(N2CCC3(CC2)CC3)c1 [Example 37, N-(3-(4,4-difluoropiperidin-1-yl)-4-(4H-1,2,4-triazol-3-yl)phenyl)-4-(ethylsulfonamido)-2-(6-azaspiro[2.5]octan-6-yl)benz amide] | 3.6 | 3.8 | 39.8 | – | – | –
12 | CCS(=O)(=O)Nc1ccc(C(=O)Nc2ccc(-c3ncn(C)n3)c(N3CCC(F)(F)CC3)c2)c(N2CCC3(CC2)CC3)c1 [Example 39, N-(3-(4,4-difluoropiperidin-1-yl)-4-(1-methyl-1H-1,2,4-triazol-3-yl)phenyl)-4-(ethylsulfon amido)-2-(6-azaspiro[2.5]octan-6-yl)benzamide] | 3.8 | 0.26 | 122 | – | – | –
13 | O=C(Nc1ccc(-c2nnco2)c(N2CCC(F)(F)CC2)c1)c1ccc(NS(=O)(=O)C2CC2)cc1N1CCC2(CC1)CC2 [Example 41, 4-(cyclopropanesulfonamido)-N-(3-(4,4-difluoropiperidin-1-yl)-4-(1,3,4-oxadiazol-2-yl)phenyl)-2-(6-azaspiro[2.5]octan-6-yl)benzamide] | 6.2 | 1.8 | 155 | – | – | –
14 | CCS(=O)(=O)Nc1ccc(C(=O)Nc2ccc(-c3ncn(C)n3)c(OC3CC(F)(F)C3)c2)c(N2CCC3(CC2)CC3)c1 [Example 45, N-(3-(3,3-difluorocyclobutoxy)-4-(1-methyl-1H-1,2,4-triazol-3-yl)phenyl)-4-(ethylsulfonamido)-2-(6-azaspiro[2.5]octan-6-yl)benzamide] | 2.5 | 6.2 | 103 | – | – | –
15 | CCS(=O)(=O)Nc1ccc(C(=O)Nc2ccc(-c3ncn(C)n3)c(N3CC(F)(F)C3)c2)c(N2CCC3(CC2)CC3)c1 [Example 46, N-(3-(3,3-difluoroazetidin-1-y 1)-4-(1-methyl-1H-l,2,4-triazo 1-3-yl)phenyl)-4-(ethylsulfonamido)-2-(6-azaspiro[2.5]octan-6-yl)benzamide] | 3.7 | 0.15 | 148 | – | – | –
